# Results: patent publication US5236912A, “Antiandrogenic [3,2-c]pyrazole and [3,2-d]triazole steroids” (Schering Aktiengesellschaft, priority 1990, dated 1993)
# Where “and” joins values, the source holds several entries; their conditions need not be identical. Equal values may be shown once.
# Tests used:
# [1] = system: orchiectomized, testosterone propionate-substituted rats; assay: classical antiandrogen test on orchiectomized, testosterone propionate-substituted rats (inhibition of prostate weight); format: in vivo; conditions: 3 mg s.c.; for Antiandrogen Test: % Inhibition of Prostate Weight: orchiectomized, testosterone propionate-substituted rats (0.1 mg/animal/day), seven day treatment
# Procedure: These two compounds, the classical antiandrogen test on orchiectomized, testosterone propionate-substituted rats (dose: 0.1 mg/animal/day) show, after a seven day treatment (s.c.) with 3 mg/animal/day) of the antiandrogen, merely about 30% of the antiandrogenic potency of cyproterone acetate (17α-acetoxy-6-chlor-1α,2α-methylene-4,6-pregnadiene-3,20-dione) which constitutes the standard antiandrogen (Friedmund Neumann, Rudolf Wiechert, "Die Geschichte von Cyproteronacetat, Ungewoehnliche Wege bei der Entwicklung eines Arzneimittels" [The History of Cyproterone Acetate, the Development of a Medicine Along Unusual Routes], MPS Medizinisch-Pharmazeutische Studiengesellschaft e.V. [Association for Medical-Pharmaceutical Studies] Mainz, Mainz (1984).
# testosterone levels [2] = assay: peripheral selectivity / counter regulation: testosterone levels in rats after administration of the compound; format: in vivo; conditions: for Counter Regulation: testosterone levels 24 hours after 10 mg s.c., lack of counter regulation = peripheral selectivity
# Procedure: In order to test peripheral selectively, the testosterone levels are measured in rats 24 hours after administration of 10 mg s.c. of the compound: lack of counter regulation is evaluated as peripheral selectively.
# [3] = system: orchiectomized, testosterone propionate-substituted rats; conditions: compound described in EP 0 207 375 A1; cited from earlier work
# testosterone levels [4] = conditions: in words, background statement; cited from earlier work
SMILES,Antiandrogen Test: % Inhibition of Prostate Weight [1] [%],Counter Regulation (testosterone levels [2]),testosterone level in the serum (testosterone levels [2]; central effect (counter regulation by feedback)),peripheral selectivity (testosterone levels [2]; lack of counter regulation is evaluated as peripheral selectivity),antiandrogen activity compared with cyproterone acetate [3],"Antiandrogen Test: % Inhibition of Prostate Weight, comparison Cyproterone Acetate (value in parentheses) ([1]; cyproterone acetate comparison value)",effect on the hypothalamus-hypophysis system (testosterone levels [4])
"CC12Cc3cn(S(C)(=O)=O)nc3C=C1C1(CC1)CC1C2CCC2(C)C1CCC2(C)O (stereo not drawn) [B, 6,6-ethylene-1'-mesyl-17α-methyl-1'H-androst-4-eno[3,2-c]pyrazol-17β-ol]",73,No,,,,,
"CC1=C2CCC3C(CCC4(C)C3CCC4(C)O)C2(C)Cc2cn(S(C)(=O)=O)nc21 (stereo not drawn) [E, 4,17α-dimethyl-1'-mesyl-1'H-androst-4-eno[3,2-c]pyrazol-17β-ol]",88,Yes,raises the testosterone level in the serum,no peripheral selectivity,comparable to cyproterone acetate,,
"CC1CC2=Cc3nn(S(C)(=O)=O)cc3CC2(C)C2CCC3(C)C(CCC3(C)O)C12 (stereo not drawn) [C, 7α,17α-dimethyl-1'-mesyl-1'H-androst-4-eno[3,2-c]pyrazol-17β-ol]",53,No,,,,,
"CC(=O)O[C@]1(C(C)=O)CC[C@H]2[C@@H]3C=C(Cl)C4=CC(=O)[C@@H]5C[C@@H]5[C@]4(C)[C@H]3CC[C@@]21C [Cyproterone Acetate, 17α-acetoxy-6-chlor-1α,2α-methylene-4,6-pregnadiene-3,20-dione]",,,,,,97% and 86% and 87% and 95% and 100%,"affecting, as does the latter compound, the hypothalamus-hypophysis system"
"CC12Cc3cn(S(C)(=O)=O)nc3C=C1CCC1C2CCC2(C)C1C=CC2(C)O (stereo not drawn) [A, 1'-mesyl-17α-methyl-1'H-androsta-4,15-dieno[3,2-c]pyrazol-17β-ol]",80,No,,,,,
"CC12Cc3nn(S(C)(=O)=O)nc3C=C1CCC1C2CCC2(C)C1C=CC2(C)O (stereo not drawn) [D, 2'-mesyl-17α-methyl-2'H-triazolo[4',5':2,3]androsta-4,15-dien-17β-ol]",97,No,,,,,
